Results published in patent US6828317B2, “Antimicrobial thiadiazinone derivatives and their application for treatment of bacterial infections” (Pharmacia & Upjohn Company, priority 2002, dated 2004).
≈ marks a conversion by molar mass, not a printed value.

Legend:
H. influenzae 30063 = experiment: MIC by agar dilution, H. influenzae 30063; format: cell-based; details: Haemophilus influenzae, Mueller Hinton agar, overnight at 35° C.
Source text: (§1) The in vitro activity of compounds of the subject invention may be assessed by standard testing procedures such as the determination of minimum inhibitory concentration (MIC) by agar dilution as described in “Approved Standard. Methods for Dilution Antimicrobial Susceptibility Tests for Bacteria that Grow Aerobically,” 3rd ed., published 1993 by the National Committee for Clinical Laboratory standards, Villanova, Pa., USA. The in vitro MICs of test compounds may be determined by a standard agar dilution method. A stock drug solution of each analog is prepared in a preferred solvent, usually DMSO:H2O (1:3). Serial 2-fold dilutions of each sample are made using 1.0 ml aliquots of sterile distilled water. To each 1.0 ml aliquot of drug is added 9 ml of molten Mueller Hinton agar medium. The drug-supplemented agar is mixed, poured into 15×100 mm petri dishes, and allowed to solidify and dry prior to inoculation. Vials of each of the test microorganisms are maintained frozen in the vapor phase of a liquid nitrogen freezer. Test cultures are grown overnight at 35° C. on the medium appropriate for the microorganism. Colonies are harvested with a sterile swab, and cell suspensions are prepared in Trypticase Soy broth (TSB) to equal the turbidity of a 0.5 McFarland standard. A 1:20 dilution of each suspension is made in TSB. The plates containing the drug supplemented agar are inoculated with a 0.001 ml drop of the cell suspension using a Steers replicator, yielding approximately 10^4 to 10^5 cells per spot. The plates are incubated overnight at 35° C. Following incubation the Minimum Inhibitory Concentration (MIC μg/ml), the lowest concentration of drug that inhibits visible growth of the microorganism, is read and recorded.

S. aureus UC9213 = experiment: MIC by agar dilution, S. aureus UC9213; format: cell-based; details: Staphylococcus aureus, Mueller Hinton agar, overnight at 35° C.
Source text: as §1

S. pneumoniae UC9912 = experiment: MIC by agar dilution, S. pneumoniae UC9912; format: cell-based; details: Streptococcus pneumoniae, Mueller Hinton agar, overnight at 35° C.
Source text: as §1

Row | MIC (H. influenzae 30063) [µg/mL] | MIC (S. aureus UC9213) [µg/mL] | MIC (S. pneumoniae UC9912) [µg/mL] | melting point [°C] | Structure (SMILES)
1 | 16 (≈ 32.8 µM) | 4 (≈ 8.19 µM) | 1 (≈ 2.05 µM) | 184 to 187 | O=C(CC(=O)c1ccc(F)cc1)NC[C@H]1CN(c2ccc(C3=NNC(=O)CS3)c(F)c2)C(=O)O1 [Example 22, N-{3-[3-Fluoro-4-(5-oxo-5,6-dihydro-4H-[1,3,4]thiadiazin-2-yl)-phenyl]-2-oxo-oxazolidin-5(S)-ylmethyl}-3-(4-fluorophenyl)-3-oxo-propionamide]
2 | 8 (≈ 16.1 µM) | 1 (≈ 2.01 µM) | 0.25 (≈ 0.503 µM) | 144 to 145 | O=C(/C=C/c1ccc(/C=N/O)cc1)NC[C@H]1CN(c2ccc(C3=NNC(=O)CS3)c(F)c2)C(=O)O1 [Example 23, N-{3-[3-Fluoro-4-(5-oxo-5,6-dihydro-4H-[1,3,4]thiadiazin-2-yl)-phenyl]-2-oxo-oxazolidin-5(S)-ylmethyl}-3-[4-(hydroxyimino-methyl)-phenyl]-acrylamide]
3 | 0.5 (≈ 1.31 µM) | 0.125 (≈ 0.327 µM) | < 0.06 | 182 to 183 | CC(=S)NC[C@H]1CN(c2ccc(C3=NNC(=O)CS3)c(F)c2)C(=O)O1 [Example 25, N-{3-[3-Fluoro-4-(5-oxo-5,6-dihydro-4H-[1,3,4]thiadiazin-2-yl)-phenyl]-2-oxo-oxazolidin-5(S)-ylmethyl}-thioacetamide]
4 | 1 (≈ 2.51 µM) | 0.25 (≈ 0.627 µM) | < 0.06 | 158 to 161 | CC(=S)NC[C@H]1CN(c2ccc(C3=NNC(=S)CS3)c(F)c2)C(=O)O1 [Example 26, N-{3-[3-Fluoro-4-(5-thioxo-5,6-dihydro-4H-[1,3,4]thiadiazin-2-yl)-phenyl]-2-oxo-oxazolidin-5(S)-ylmethyl}-thioacetamide]
5 | 16 (≈ 42.1 µM) | 2 (≈ 5.26 µM) | 0.5 (≈ 1.31 µM) | 179 to 180 | CC(=O)NC[C@H]1CN(c2ccc(C3=NN(C)C(=O)CS3)c(F)c2)C(=O)O1 [Example 32, N-{3-[3-Fluoro-4-(4-methyl-5-oxo-5,6-dihydro-[1,3,4]thiadiazin-2-yl)-phenyl]-2-oxo-oxazolidin-5(S)-ylmethyl}-acetamide]
6 | 1 (≈ 3.07 µM) | 0.125 (≈ 0.384 µM) | 0.25 (≈ 0.768 µM) | 224 to 227 | O=C1CSC(c2ccc(N3C[C@H](CO)OC3=O)cc2F)=NN1 [Example 34]
